The assay has as its target T1, hCA I (Homo sapiens, UniProt P00915).
T1 construct: gene CA1; recombinant, obtained in house as reported earlier; cytosolic isoform
In words: stopped-flow CO2 hydrase assay. It counts as biochemical. To be noted: […] Hepes pH […] Na2SO4, CO2 […], […] min pre-incubation at room temperature.

Our source for the Ki values is PMC6844379, “Design, synthesis, in vitro inhibition and toxicological evaluation of human carbonic anhydrases I, II and IX inhibitors in 5-nitroimidazole series” (Journal of Enzyme Inhibition and Medicinal Chemistry, 2019).

T1 sequence (P00915 2-261): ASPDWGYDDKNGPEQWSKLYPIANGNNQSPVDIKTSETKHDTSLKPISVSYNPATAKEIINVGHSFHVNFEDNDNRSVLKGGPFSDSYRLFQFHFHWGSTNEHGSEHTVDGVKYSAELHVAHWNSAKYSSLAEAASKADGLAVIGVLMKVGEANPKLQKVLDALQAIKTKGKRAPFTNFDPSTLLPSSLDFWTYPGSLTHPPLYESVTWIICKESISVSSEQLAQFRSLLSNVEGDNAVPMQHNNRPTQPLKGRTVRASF

On to `Cc1ncc([N+](=O)[O-])n1CCS(N)(=O)=O` [compound 10, 2-(2-Methyl-5-nitro-1H-imidazol-1-yl)ethane-1-sulphonamide], for which the Ki was 6430 nM.
